{"source": "patent US20130005740A1", "about": "“PROCESS FOR PREPARATION OF OVER-THE-COUNTER GELATIN OR PECTIN-BASED DRUG DELIVERY” (7267207 CANADA LIMITED CORPORATION, priority 2009, published 2013)", "origin": "cited, not measured here", "settings": "unlike aspirin"}
{"smiles": "CC(C)Cc1ccc(C(C)C(=O)O)cc1", "note": "(stereo not shown) [ibuprofen]", "values": [{"measurement": "stability in solution", "result": "stable in solution"}]}
